Assay results taken from patent publication US20230191357A1, “SYSTEM AND METHOD FOR ENHANCING THE REACTION POTENTIAL OF PRODUCTS GENERATED FROM IONIZATION, PHOTON-ENHANCED THERMIONIC EMISSION, MULTI PHOTON ABSORPTION, PHOTOOXIDATION, PHOTOCATALYTIC, AND PHOTOCHEMICAL REACTIONS WITH OXIDIZING AGENTS” (Bis Science LLC, priority 2021, published 2023).
Several values for one entry are separate records, joined by “and”; a condition that tells them apart may be missing. Equal entries are not always repeated.

Key:
Format in all cases: cell-based
[1] = test system: E. coli ATCC 11229; assay: Carrier test of residual antimicrobial effect, 4 weeks post photon exposure; settings: contact time 10 Minutes, 4 weeks post exposure to radiation
[2] = test system: Staphylococcus aureus ATCC 6538; assay: Hydrogen peroxide exposed or not exposed to photons applied to inoculated target microbes; settings: contact time 5 Minutes; for CFU/ml: single replicates
Method: The test substances were hydrogen peroxide at 1 ppm and at 0.3%, which were exposed or not exposed to photons of 0.01 nm through 845 nm and applied to target of microbes, which included a carrier for the inoculated target microbes such as agar with a viable bacteria concentration of Staphylococcus aureus ATCC 6538. The control for this test was a similar inoculated plate and it was treated in the same manor but there was no application of photons to the oxidizing agent.

[3] = test system: viable cells (microbial counts); assay: Independent lab testing of the HVAC antimicrobial system utilizing Photon Augmented Oxidizing Agents (coupons, ambient air); settings: 1 part per million, 5 minute contact time with the ambient air
Source text: All test samples were compared against the Control provided. (Independent lab testing of the HVAC antimicrobial system utilizing Photon Augmented Oxidizing Agents).

Compound	Average Log10 Reduction Compared to Controls [1] [Log10]	Average Percent Reduction Compared to Controls [1] [%]	CFU/Carrier [1] [CFU/Carrier]	Average Percent Reduction Compared to Controls ([1]; listed as control substance) [%]	Average CFU/ml [2] [CFU/ml]	Average Log10 Reduction Compared to Controls [2]	Average Percent Reduction Compared to Controls [2]	CFU/ml [2]	microbial reduction [3]
OO [Control Substance, hydrogen peroxide]	0.11	23.08	3.00E+04	23.08	–	–	–	–	–
OO [0.3% No photon emission, hydrogen peroxide]	–	–	–	–	4.05E+06	No Reduction	No Reduction	4.10E+06 CFU/ml and 4.00E+06 CFU/ml	–
OO [1 PPM No photon emission, hydrogen peroxide]	–	–	–	–	4.05E+06	No Reduction	No Reduction	4.10E+06 CFU/ml	–
OO [standard hydrogen peroxide, hydrogen peroxide]	–	–	–	–	–	–	–	–	little or no microbial reduction
